Measured values reported in patent publication US20110212196A1, “THERAPEUTIC OIL COMPOSITION CONTAINING CARVONE” (MAINE CONSERVATION MEDICINE CENTER, priority 2010, published 2011).

Assays:
fish = conditions: in vivo; cited from earlier work
elasmobranch fishes = assay: anesthesia of elasmobranch fishes by immersion; assay type: in vivo, spiny dogfish Squalus acanthias; conditions: 400-600 mg/L carvone alone, oil-in-water emulsion
From the text: 3. […] For examples spiny dogfish Squalus acanthias can be anesthetized by immersion.

Compound | safety during anesthesia/euthanasia (fish) | anesthesia (elasmobranch fishes)
O=C=O [carbon dioxide] | Some fish died during anesthesia | 
C=C(C)C1CC=C(C)C(=O)C1 (centres unmarked) [carvone] |  | will anesthetize
